Source: ChEMBL document CHEMBL1201862, “PubChem BioAssay data set” (2004)
Active and inactive are the calls of the source.

Key:
Cytochrome P450 2C19 = Cytochrome P450 2C19 (Homo sapiens, UniProt P33261); test: Cytochrome panel assay with activity outcomes. Panel member name: p450-cyp2c19 Compounds with AC50 equal or less than 10 uM are considered active; type: functional
Cytochrome P450 3A4 = Cytochrome P450 3A4 (Homo sapiens, UniProt P08684);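 further: CYP3A4 tested as one member of a cytochrome P450 panel screen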
Chain of Cytochrome P450 3A4 (P08684 whole entry): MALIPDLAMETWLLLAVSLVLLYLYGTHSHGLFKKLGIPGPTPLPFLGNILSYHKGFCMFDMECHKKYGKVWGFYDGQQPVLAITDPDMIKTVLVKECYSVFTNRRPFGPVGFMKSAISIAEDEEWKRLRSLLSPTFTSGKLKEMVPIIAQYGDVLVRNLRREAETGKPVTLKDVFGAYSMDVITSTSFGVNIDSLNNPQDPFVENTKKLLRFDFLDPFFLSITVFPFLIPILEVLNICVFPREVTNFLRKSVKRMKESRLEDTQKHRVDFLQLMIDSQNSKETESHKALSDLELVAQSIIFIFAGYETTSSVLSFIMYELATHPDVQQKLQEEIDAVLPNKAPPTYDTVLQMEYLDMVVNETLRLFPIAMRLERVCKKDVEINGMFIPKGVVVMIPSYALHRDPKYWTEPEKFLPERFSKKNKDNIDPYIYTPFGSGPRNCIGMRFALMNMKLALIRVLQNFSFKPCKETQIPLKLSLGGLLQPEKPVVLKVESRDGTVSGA

Cytochrome P450 2C9 = Cytochrome P450 2C9 (Homo sapiens, UniProt P11712)
Chain of Cytochrome P450 2C9 (P11712 whole entry): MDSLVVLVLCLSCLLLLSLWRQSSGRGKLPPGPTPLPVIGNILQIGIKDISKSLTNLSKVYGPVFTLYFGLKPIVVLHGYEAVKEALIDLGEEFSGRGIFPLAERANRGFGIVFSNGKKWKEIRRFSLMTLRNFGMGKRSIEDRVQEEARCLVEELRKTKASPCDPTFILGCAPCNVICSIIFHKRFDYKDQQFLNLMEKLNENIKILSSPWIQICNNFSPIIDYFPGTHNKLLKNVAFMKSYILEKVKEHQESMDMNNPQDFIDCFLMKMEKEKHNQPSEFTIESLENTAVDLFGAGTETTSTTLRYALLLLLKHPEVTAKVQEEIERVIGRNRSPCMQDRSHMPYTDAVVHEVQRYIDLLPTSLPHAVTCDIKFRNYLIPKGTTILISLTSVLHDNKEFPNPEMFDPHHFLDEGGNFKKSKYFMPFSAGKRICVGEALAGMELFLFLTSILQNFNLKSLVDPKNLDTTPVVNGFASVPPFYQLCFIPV

Cytochrome P450 2D6 = Cytochrome P450 2D6 (Homo sapiens, UniProt P10635);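 further: CYP2D6 member of a cytochrome P450 panel assay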
Chain of Cytochrome P450 2D6 (P10635 whole entry): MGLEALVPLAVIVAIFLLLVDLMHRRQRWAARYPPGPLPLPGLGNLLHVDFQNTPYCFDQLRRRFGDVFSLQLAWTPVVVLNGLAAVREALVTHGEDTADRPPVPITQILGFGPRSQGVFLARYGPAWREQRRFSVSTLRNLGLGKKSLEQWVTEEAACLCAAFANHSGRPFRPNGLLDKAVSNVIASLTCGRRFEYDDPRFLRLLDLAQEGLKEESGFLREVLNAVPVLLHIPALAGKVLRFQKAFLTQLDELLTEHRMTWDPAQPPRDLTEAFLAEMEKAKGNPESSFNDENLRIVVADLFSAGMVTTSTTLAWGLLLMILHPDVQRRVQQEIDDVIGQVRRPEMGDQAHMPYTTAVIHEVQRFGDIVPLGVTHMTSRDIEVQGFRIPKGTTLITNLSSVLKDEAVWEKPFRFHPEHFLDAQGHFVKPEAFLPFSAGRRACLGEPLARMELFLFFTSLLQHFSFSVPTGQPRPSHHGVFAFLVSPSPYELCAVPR

[1] = Trypanosoma cruzi growth suppression in host cells – NIH3T3 host cells, beta-gal luminescence, confirmation (AID 2044); type: functional, cell-based;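 further: intracellular parasites grown in NIH/3T3 mouse fibroblasts as host cells; luminescent beta-galactosidase reporter signal from transgenic T. cruzi replicating inside host cells; inhibitors lower the luminescence signal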
[2] = NIH3T3 cell viability loss – ATP luminescence, mouse fibroblasts, counter-screen, dose response (AID 2010); type: functional, cell-based;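 further: cells exposed to compound for about 90 hours before reading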
[3] = biological target: T1, Heat shock factor protein 1 (Mus musculus, UniProt P38532); test: decrease of HSF1-responsive luciferase luminescence – cell-based, NIH3T3, dose retest, confirmation (AID 2382); type: functional;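 further: NIH3T3 fibroblasts with HSF1-driven luciferase reporter stressed by proteasome inhibitor MG132; luminescence from HSF1-driven luciferase expression after 8 hours of MG132 stress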
T1 sequence (P38532 whole entry): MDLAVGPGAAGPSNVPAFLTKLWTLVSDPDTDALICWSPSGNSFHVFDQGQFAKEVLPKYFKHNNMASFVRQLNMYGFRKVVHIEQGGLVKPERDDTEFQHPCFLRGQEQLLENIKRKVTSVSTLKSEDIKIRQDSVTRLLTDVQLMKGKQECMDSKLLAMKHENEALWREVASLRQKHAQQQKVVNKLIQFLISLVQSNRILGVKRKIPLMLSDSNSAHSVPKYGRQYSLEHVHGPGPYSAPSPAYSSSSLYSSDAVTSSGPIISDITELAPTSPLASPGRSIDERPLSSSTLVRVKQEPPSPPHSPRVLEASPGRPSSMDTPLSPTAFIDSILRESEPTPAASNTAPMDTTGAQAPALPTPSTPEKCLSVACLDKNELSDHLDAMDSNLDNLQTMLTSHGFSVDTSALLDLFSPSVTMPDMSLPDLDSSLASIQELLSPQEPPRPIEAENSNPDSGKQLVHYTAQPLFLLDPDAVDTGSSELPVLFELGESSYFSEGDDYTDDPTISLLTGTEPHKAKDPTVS

Chain of Cytochrome P450 2C19 (P33261 whole entry): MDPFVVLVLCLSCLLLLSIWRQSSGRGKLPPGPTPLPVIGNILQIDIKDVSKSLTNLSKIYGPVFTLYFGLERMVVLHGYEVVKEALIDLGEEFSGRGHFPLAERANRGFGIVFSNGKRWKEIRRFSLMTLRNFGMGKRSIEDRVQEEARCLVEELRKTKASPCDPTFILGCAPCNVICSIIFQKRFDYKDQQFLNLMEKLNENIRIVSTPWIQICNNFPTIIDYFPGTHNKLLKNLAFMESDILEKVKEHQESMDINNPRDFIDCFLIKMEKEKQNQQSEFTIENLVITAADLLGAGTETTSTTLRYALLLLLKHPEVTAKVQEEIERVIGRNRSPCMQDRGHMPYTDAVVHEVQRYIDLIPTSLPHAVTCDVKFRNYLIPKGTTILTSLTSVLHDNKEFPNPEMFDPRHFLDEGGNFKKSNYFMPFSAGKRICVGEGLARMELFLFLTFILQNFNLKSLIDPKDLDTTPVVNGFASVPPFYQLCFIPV

## Cc1ccc(C(=O)N/N=C/c2nc3ccccc3n2C)cc1
Cytochrome P450 2C19; read-out: AC50
  AC50: 15.8 µM (inconclusive)
Cytochrome P450 3A4
  AC50: 3.16 µM (inconclusive)
Cytochrome P450 2C9
  AC50: 12.6 µM (inconclusive)

## CCN1C(=O)C(CC(=O)Nc2ccc(OC)cc2)N(Cc2cccs2)C1=S (stereo not given)
Cytochrome P450 2D6
  AC50: 14.1 µM (inconclusive)

## CC1(c2ccccc2)NC(=O)N(CC(=O)NCCC2=CCCCC2)C1=O (stereo not given)
Cytochrome P450 2D6
  AC50: 22.4 µM (inconclusive)
Cytochrome P450 3A4
  AC50: 20 µM (inconclusive)

## Cc1nc(N=C(N)NS(=O)(=O)c2ccc([N+](=O)[O-])cc2)nc2ccccc12
[1]
  EC50: 0.452 µM (active)
[2]
  EC50: 24.6 µM (active)

## O[C@@H](COc1cccc2ccccc12)CN1CCOCC1
Cytochrome P450 2C19; read-out: AC50
  AC50: 0.0501 µM (inconclusive)

## O=C(c1ccco1)N1CCN(S(=O)(=O)/C=C/c2ccccc2)CC1
[3]
  EC50: > 195 µM (not active)

## CCCn1c(NC(=O)c2ccc(F)cc2)nc2ccccc21
[1]
  EC50: 3 µM (active)
[2]
  EC50: > 60 µM (not active)

## Sc1c2ncnc-2ncn1CCSc1[nH]cnc2ncnc1-2
Cytochrome P450 2C19
  AC50: inconclusive

## O=S(=O)(NCc1ccc(C(F)(F)F)cc1)c1ccc(-n2cnnn2)cc1
[3]
  EC50: > 195 µM (not active)

## COCCn1c(=O)c(-c2ccc(OC)cc2)nc2cnc(OCc3ccccc3)nc21
Cytochrome P450 3A4
  AC50: 25.1 µM (inconclusive)

## CCN1CCCc2cc(CN(CCN3CCOCC3)C(S)=Nc3ccccc3OC)ccc21
[1]
  EC50: 1.53 µM (active)
[2]
  EC50: > 60 µM (not active)

## CCN(CC)C(=O)C1CCCN(Cc2ccc(N(C)C)cc2)C1 (stereo not given)
[1]
  EC50: 0.296 µM (active)
[2]
  EC50: > 60 µM (not active)

## CC(=O)O[C@H]1C2=CO[C@H](C)[C@H]3C4C5=C([C@@H](O[C@H]4C)[C@@]23C(=O)[C@H]2O[C@@H]21)[C@H](O)[C@H]1O[C@@H]1C5=O
Cytochrome P450 3A4
  AC50: 3.98 µM (inconclusive)

## CC(=O)SCC[N+](C)(C)C [ACETYLTHIOCHOLINE]
Cytochrome P450 2C19
  AC50: inconclusive

## COc1ccccc1CN(C)C(=O)C1COc2ccccc2O1 (stereo not given)
[3]
  EC50: > 195 µM (not active)

## CCN(CC)C(=O)C1CCCN(c2ccc([N+](=O)[O-])cc2/C=N/NC(=O)c2ccc([N+](=O)[O-])cc2)C1 (stereo not given)
[3]
  EC50: > 195 µM (not active)
Cytochrome P450 3A4
  AC50: 2.82 µM (inconclusive)

## N#CC(C#N)=C(N)/C(C#N)=C/c1ccc(O)cc1
Cytochrome P450 3A4
  AC50: 39.8 µM (inconclusive)

## COc1ccc(/C=C/C(=O)Oc2ccc(/C=N/NC(=O)COc3c(C)cccc3C)cc2)cc1
[3]
  EC50: > 195 µM (not active)

## Cc1ccc([N+](=O)[O-])cc1NC(=S)NC(=O)CC(C)(C)C
Cytochrome P450 2D6
  AC50: 12.6 µM (inconclusive)
Cytochrome P450 3A4
  AC50: 22.4 µM (inconclusive)

## CCCCCCN1CC(=O)N2[C@@H](Cc3c([nH]c4ccccc34)C2(C)C)C1=O
[3]
  EC50: > 195 µM (not active)

## COc1ccccc1CN1CCN(Cc2nc(Cc3ccccc3)no2)CC1
[1]
  EC50: 0.754 µM (active)
[2]
  EC50: > 30 µM (not active)

## CN(C)c1ncnc2ccc(-c3cccnc3)cc12
Cytochrome P450 2D6
  AC50: 39.8 µM (inconclusive)
Cytochrome P450 2C9
  AC50: 1.26 µM (inconclusive)

## O=S(=O)(NCCCCCCc1ccccc1)c1cccc2c(Cl)cccc12
Cytochrome P450 2C9
  AC50: 5.01 µM (inconclusive)

## COn1c(-c2ccccc2)nc2c1CCc1nonc1-2
Cytochrome P450 3A4
  AC50: 31.6 µM (inconclusive)
Cytochrome P450 2C9
  AC50: 25.1 µM (inconclusive)

## Cn1c(SC2CCCCC2=O)nnc1-c1ccncc1 (stereo not given)
Cytochrome P450 3A4
  AC50: 25.1 µM (inconclusive)

## COc1ccc2[nH]cc(CCNc3ccnc(-c4cccc(NS(C)(=O)=O)c4)n3)c2c1
Cytochrome P450 3A4
  AC50: 2.51 µM (inconclusive)
Cytochrome P450 2C9
  AC50: 0.126 µM (inconclusive)

## COc1ccccc1CN1CCCC(N2CCN(c3ccc(F)cc3)CC2)C1 (stereo not given)
[1]
  EC50: 0.253 µM (active)
[2]
  EC50: 10.1 µM (active)

## CCCc1cc2c(n1CCO)C(C)C1CN(C(=O)c3ccccc3)C(C)(C(=O)OC)C21 (stereo not given)
Cytochrome P450 2C19; read-out: AC50
  AC50: 3.16 µM (inconclusive)

## CN(C)c1ncc(CN2CCC(CO)(CCCc3ccccc3)CC2)s1
[1]
  EC50: 0.996 µM (active)
[2]
  EC50: > 60 µM (not active)

## CN1CCN(C(c2ccccc2)c2ccccc2)CC1 [CYCLIZINE]
Cytochrome P450 2D6
  AC50: 7.94 µM (inconclusive)

## O=C(COC(=O)c1cnccn1)Nc1ccc(Cl)cn1
[3]
  EC50: > 195 µM (not active)

## O=C(c1cnccn1)N1CCC2(CCCN(c3ccccc3)C2)CC1
Cytochrome P450 2C9
  AC50: 39.8 µM (inconclusive)

## CN1CCN(c2ccc(S(=O)(=O)N3CCCCC3)cc2NC(=O)CSCc2ccccc2)CC1
[1]
  EC50: 0.315 µM (active)
[2]
  EC50: > 60 µM (not active)

## COc1ccc2nc3c(O)n(CCCN4CCOCC4)cnc-3c2c1
[3]
  EC50: > 195 µM (not active)

## COc1ccc(NC(=O)Cn2c(=O)n(Cc3ccco3)c(=O)c3ccccc32)cc1
[3]
  EC50: > 195 µM (not active)

## Clc1ccc(OCCn2ccnc2)cc1Cl
[1]
  EC50: 2.49 µM (active)
[2]
  EC50: > 60 µM (not active)

## COc1cccc(C(=O)Nc2nc3c(s2)CN(C)CC3)c1
Cytochrome P450 2D6
  AC50: 25.1 µM (inconclusive)

## Cc1ccc(C(=N)NOC(=O)Cc2cccs2)cc1
Cytochrome P450 3A4
  AC50: 28.2 µM (inconclusive)

## Cc1c(C)n(CCCN(C)C)c2ncnc(NC3CCCCC3)c12
[1]
  EC50: 0.603 µM (active)
[2]
  EC50: > 60 µM (not active)

## Cn1c(=O)c(-c2ccccc2)nc2cnc(N3CCNCC3)nc21
Cytochrome P450 2C19; read-out: AC50
  AC50: 39.8 µM (inconclusive)
Cytochrome P450 2C9
  AC50: 15.8 µM (inconclusive)

## O=C(NCC1CCCN(Cc2ccccc2F)C1)c1cccc(C(F)(F)F)c1 (stereo not given)
[1]
  EC50: 0.975 µM (active)
[2]
  EC50: > 60 µM (not active)

## CCOc1ccc(OCC)c(NC(=O)C2CCCN(S(=O)(=O)c3cccs3)C2)c1 (stereo not given)
Cytochrome P450 2C19; read-out: AC50
  AC50: 2.82 µM (inconclusive)
Cytochrome P450 2C9
  AC50: 2.51 µM (inconclusive)

## N#Cc1ccccc1NC(=O)c1ccccc1OCC(=O)Nc1ccc2c(c1)oc1ccccc12
[1]
  EC50: 2.85 µM (active)
[2]
  EC50: 47.3 µM (active)

## COc1ccccc1NC(=O)C1CCN(C(=O)C2CC(=O)N(c3ccc(C)cc3)C2)CC1 (stereo not given)
[3]
  EC50: > 195 µM (not active)

## CCc1ccc(NC(=O)CSc2ccc(-c3cccnc3)nn2)cc1
[3]
  EC50: > 195 µM (not active)

## COc1cccc(-c2csc(N3CCN(C(=S)Nc4ccccc4)CC3)n2)c1
Cytochrome P450 2C9
  AC50: 0.158 µM (inconclusive)

## O=C(C1=C[C@H](c2csc3ccccc23)C[C@H](OCc2ccc(CO)cc2)O1)N1CCN(Cc2ccc3c(c2)OCO3)CC1
[1]
  EC50: 0.137 µM (active)
[2]
  EC50: > 60 µM (not active)

## Cc1cc([N+](=O)[O-])nn1CC(=O)NCc1nc2ccccc2[nH]1
[3]
  EC50: > 195 µM (not active)

## COCCN(C(=O)COC(=O)/C=C/c1ccc(C(F)(F)F)cc1)c1c(N)n(Cc2ccccc2)c(=O)[nH]c1=O
[3]
  EC50: > 195 µM (not active)

## COc1ccc(CCNC(=O)C2CCN(S(=O)(=O)N3CC(C)CC(C)C3)CC2)cc1OC (stereo not given)
Cytochrome P450 2C9
  AC50: 22.4 µM (inconclusive)

## CC(=O)Nc1ccc(OS(=O)(=O)c2ccccc2C)cc1
[3]
  EC50: > 195 µM (not active)

## CCN(CC)C(=O)CSc1nnc(CNc2ccc(F)cc2)o1
Cytochrome P450 2C19; read-out: AC50
  AC50: 22.4 µM (inconclusive)
Cytochrome P450 3A4
  AC50: 25.1 µM (inconclusive)

## CN1CCN(NC(=O)c2cc([N+](=O)[O-])cc([N+](=O)[O-])c2)CC1
[1]
  EC50: 2.33 µM (active)
[2]
  EC50: > 30 µM (not active)

## O=C(NCCc1ccccn1)c1cc(C(=O)C2CCCCC2)c[nH]1
Cytochrome P450 2C9
  AC50: 0.158 µM (inconclusive)

## Cc1ccc(C(=O)Nc2ccccc2C(=O)O)cc1S(=O)(=O)NCc1ccccc1
[3]
  EC50: > 195 µM (not active)

## CCOP(=O)(OCC)C(NC(=O)C(Cl)Cl)C(Cl)(Cl)Cl (stereo not given)
Cytochrome P450 3A4
  AC50: 31.6 µM (inconclusive)
Cytochrome P450 2C9
  AC50: 39.8 µM (inconclusive)

## O=C(Nc1cccnc1)c1noc2c1CCCCC2
[3]
  EC50: 0.288 µM (active)

## CCOC(=O)c1cncc(C(=O)O)c1
Cytochrome P450 2C19; read-out: AC50
  AC50: 31.6 µM (inconclusive)

## O=C(CN(CC1CCCO1)C(=O)CNS(=O)(=O)c1ccc(Cl)cc1)NCCc1ccccc1 (stereo not given)
Cytochrome P450 2D6
  AC50: 39.8 µM (inconclusive)
Cytochrome P450 2C9
  AC50: 22.4 µM (inconclusive)

## CCNc1ncc2nc(CCc3ccccc3)c(=O)n(C3CC3)c2n1
Cytochrome P450 2C9
  AC50: 3.98 µM (inconclusive)

## N#CC1=C(N)N(c2ccc(Oc3ccccc3)cc2)C(=O)C1
[3]
  EC50: > 195 µM (not active)

## CC(C)NC(=O)N1CC[C@@]2(CCCN(C(=O)c3csnn3)C2)C1
Cytochrome P450 3A4
  AC50: 15.8 µM (inconclusive)

## Cc1oc(-c2ccccc2F)nc1C[S+]([O-])CC(=O)N1CCC2(CC1)OCCO2 (stereo not given)
Cytochrome P450 2C9
  AC50: 20 µM (inconclusive)

## CC(=O)OCC1=C(C(=O)O)N2C(=O)[C@@H](NC(=O)CCC[C@@H](N)C(=O)O)[C@@H]2SC1
Cytochrome P450 2C9
  AC50: 39.8 µM (inconclusive)

## CCCCCCCCC(=O)N/N=C/c1cccc(Br)c1
Cytochrome P450 2D6
  AC50: 7.08 µM (inconclusive)

## CCOC(=O)c1ccc(S(=O)(=O)N2CCN(C)CC2)cc1
Cytochrome P450 2C9
  AC50: 39.8 µM (inconclusive)

## CCOc1ccccc1CN1CCN(Cc2nc3ccccc3s2)CC1CCO (stereo not given)
[1]
  EC50: 1.16 µM (active)
[2]
  EC50: > 60 µM (not active)

## O=C(CCN1CCN(C/C=C/c2ccccc2)CC1)Nc1ccccc1
[1]
  EC50: 1.95 µM (active)
[2]
  EC50: > 60 µM (not active)

## Nc1ccccc1S[C@@H](C[N+](=O)[O-])c1ccc2c(c1)OCO2
Cytochrome P450 3A4
  AC50: 2.51 µM (inconclusive)
Cytochrome P450 2C9
  AC50: 6.31 µM (inconclusive)

## Cc1ccc(CNC(=O)C2CCCN2C(=O)NCc2ccccc2)cc1 (stereo not given)
Cytochrome P450 2C9
  AC50: 11.2 µM (inconclusive)
